Experimental data reported in patent US8168651B2, “Protein kinase modulators” (Cylene Pharmaceuticals, Inc., priority 2008, dated 2012).
Where two headings read alike, the source gives them in different places. One block for each compound: values may come before it.

Columns and labels:
recombinant human PIM1 = recombinant human PIM1 (Homo sapiens (Human), UniProt P11309); test: PIM-1 kinase activity in cell-free in vitro assay; type: biochemical; settings: for inhibition at 0.5 µM: 500 nM compound, read-out: PIM-1: % inh 500 nM
Chain of recombinant human PIM1 (P11309 whole entry): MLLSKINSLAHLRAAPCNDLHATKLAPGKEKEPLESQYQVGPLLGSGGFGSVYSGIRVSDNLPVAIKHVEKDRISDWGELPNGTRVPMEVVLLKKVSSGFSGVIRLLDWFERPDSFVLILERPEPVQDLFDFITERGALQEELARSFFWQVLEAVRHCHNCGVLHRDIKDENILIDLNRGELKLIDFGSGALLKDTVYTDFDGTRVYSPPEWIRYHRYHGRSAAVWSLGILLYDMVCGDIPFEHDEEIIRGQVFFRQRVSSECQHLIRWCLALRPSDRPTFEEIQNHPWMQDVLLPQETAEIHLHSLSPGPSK

[1] = system: HCT-116 human colorectal carcinoma cells; test: Cell-proliferation assay using Alamar Blue dye; type: cell-based; settings: Homo sapiens, read-out: HCT-116 (uM), cell proliferation modulatory activity;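 further: cells exposed to compound for about 4 days, then Alamar Blue added and dye fluorescence read after about 4 h, compared with medium-only control wells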
[2] = HCT-116, HCT-116, second column

Structure (SMILES): O=C(NCCCO)c1ccc2c(c1)nc(NCCCO)c1ccsc12
inhibition at 0.5 µM (recombinant human PIM1; cell-free): -24.7%
IC50 ([1]; HCT-116, HCT-116, first column): 10 µM

Structure (SMILES): NC(=O)c1ccc2c(c1)[nH]c(=O)c1ccncc12
inhibition at 0.5 µM (recombinant human PIM1; cell-free): 4.18%
IC50 [1, 2]: > 10 µM

Structure (SMILES): CN(C)CCCNc1nc2cc(-c3nnn[nH]3)ccc2c2sccc12
inhibition at 0.5 µM (recombinant human PIM1; cell-free): 58.2%
IC50 (recombinant human PIM1; cell-free): 0.511 µM
IC50 [1, 2]: 15 µM

Structure (SMILES): CN(C)C(=O)c1cccc2c1nc(Nc1cccc(Cl)c1)c1ccncc12
IC50 (recombinant human PIM1; Table 45): > 1.1 µM

Structure (SMILES): CN(C)CCNC(=O)c1cccc2c1nc(Nc1cccc(Cl)c1)c1ccncc12
IC50 (recombinant human PIM1; Table 45): > 1.1 µM

Structure (SMILES): O=C(O)c1ccc2c(c1)nc(Nc1cccc(F)c1)c1nc(NC3CC3)ncc12
inhibition at 0.5 µM (recombinant human PIM1; cell-free assay): 59.3%

Structure (SMILES): Cc1ncc2c(n1)c(Nc1cccc(Cl)c1)nc1cc(C(=O)O)ccc12
inhibition at 0.5 µM (recombinant human PIM1; cell-free assay): 12.9%

Structure (SMILES): COCCNC(=O)c1cccc2c1nc(Nc1cccc(Cl)c1)c1ccncc12
IC50 (recombinant human PIM1; Table 45): > 1.1 µM

Structure (SMILES): O=C(O)c1ccc2c(c1)nc(Nc1cccc(Cl)c1)c1ccsc12
inhibition at 0.5 µM (recombinant human PIM1; cell-free): 81.1%
IC50 (recombinant human PIM1; cell-free): 0.391 µM

Structure (SMILES): C#Cc1cccc(Nc2nc3cc(C(=O)OC)ccc3c3cnc(NOC)nc23)c1
inhibition at 0.5 µM (recombinant human PIM1; cell-free assay): 0.371%

Structure (SMILES): COCCOc1cccc(Nc2nc3c(C(N)=O)cccc3c3cnccc23)c1
IC50 (recombinant human PIM1; Table 45): < 0.5 µM

Structure (SMILES): Fc1cc(Nc2nc3cc(-c4nnn[nH]4)ccc3c3cnccc23)ccc1Cl
inhibition at 0.5 µM (recombinant human PIM1; cell-free): 9.3%

Structure (SMILES): CC(C)Nc1ncc2c(n1)c(Nc1cccc(Cl)c1)nc1cc(C(=O)O)ccc12
inhibition at 0.5 µM (recombinant human PIM1; cell-free assay): -0.505%

Structure (SMILES): Cc1cccc(Nc2nc3cc(-c4nnn[nH]4)ccc3c3sccc23)c1
inhibition at 0.5 µM (recombinant human PIM1; cell-free): 58%
IC50 (recombinant human PIM1; cell-free): 0.386 µM

Structure (SMILES): FC(F)(F)Oc1cccc(Nc2nc3cc(-c4nnn[nH]4)ccc3c3sccc23)c1
inhibition at 0.5 µM (recombinant human PIM1; cell-free): 30.7%

Structure (SMILES): O=C(O)c1ccc2c(c1)nc(Nc1cccc(Cl)c1)c1nc(O)ncc12
inhibition at 0.5 µM (recombinant human PIM1; cell-free assay): 3.53%

Structure (SMILES): O=C(NCc1ccccc1)c1cccc2c1nc(Nc1cccc(Cl)c1)c1ccncc12
IC50 (recombinant human PIM1; Table 45): > 1.1 µM

Structure (SMILES): CONC(=O)c1cccc2c1nc(Nc1cccc(Cl)c1)c1ccncc12
IC50 (recombinant human PIM1; Table 45): > 1.1 µM

Structure (SMILES): C#Cc1cccc(Nc2nc3cc(C(=O)O)ccc3c3sccc23)c1
inhibition at 0.5 µM (recombinant human PIM1; cell-free): 26%

Structure (SMILES): O=C(O)c1cccc(Nc2nc3cc(-c4nnn[nH]4)ccc3c3sccc23)c1
inhibition at 0.5 µM (recombinant human PIM1; cell-free): 58%
IC50 (recombinant human PIM1; cell-free): 0.648 µM

Structure (SMILES): CCOc1ncc2c(n1)c(Nc1cccc(C(F)(F)F)c1)nc1cc(C(=O)O)ccc12
inhibition at 0.5 µM (recombinant human PIM1; cell-free assay): -5%

Structure (SMILES): CCCNC(=O)c1cccc(Nc2nc3cc(-c4nnn[nH]4)ccc3c3sccc23)c1
inhibition at 0.5 µM (recombinant human PIM1; cell-free): 47.7%

Structure (SMILES): O=C(O)c1ccc2c(c1)nc(Nc1ccccc1)c1nc(NC3CCNCC3)ncc12
inhibition at 0.5 µM (recombinant human PIM1; cell-free assay): -2.53%

Structure (SMILES): O=C(O)CCNc1ncc2c(n1)c(Nc1cccc(Cl)c1)nc1cc(C(=O)O)ccc12
inhibition at 0.5 µM (recombinant human PIM1; cell-free assay): 24.2%

Structure (SMILES): CC(=O)Nc1cccc(Nc2nc3cc(-c4nnn[nH]4)ccc3c3sccc23)c1
inhibition at 0.5 µM (recombinant human PIM1; cell-free): 27.1%

Structure (SMILES): O=C(Nc1ccccc1)c1cccc2c1nc(Nc1cccc(Cl)c1)c1ccncc12
IC50 (recombinant human PIM1; Table 45): > 1.1 µM

Next, values leading:

IC50 (recombinant human PIM1): < 0.1 µM
Structure (SMILES): NCc1ccc(Nc2nc3c(-c4nnc[nH]4)cccc3c3cnccc23)c(Cl)c1

IC50 (recombinant human PIM1; Table 45): > 1.1 µM
Structure (SMILES): CNC(=O)c1cccc2c1nc(Nc1cccc(Cl)c1)c1ccncc12 [drawing 2277]

IC50 (recombinant human PIM1): 3.97 µM
Structure (SMILES): c1cc(-c2nnc[nH]2)c2nc(N3CCOCC3)c3ccncc3c2c1

IC50 (recombinant human PIM1; Table 45): > 1.1 µM
Structure (SMILES): N#Cc1cccc2c1nc(Nc1cccc(Cl)c1)c1ccncc12

IC50 (recombinant human PIM1; Table 45): > 1.1 µM
Structure (SMILES): O=C(c1cccc2c1nc(Nc1cccc(Cl)c1)c1ccncc12)N1CCOCC1

IC50 (recombinant human PIM1; Table 45): < 1 µM
Structure (SMILES): OCc1cccc2c1nc(Nc1cccc(Cl)c1)c1ccncc12

IC50 (recombinant human PIM1; Table 45): > 1.1 µM
Structure (SMILES): O=C(NC1CC1)c1cccc2c1nc(Nc1cccc(Cl)c1)c1ccncc12

inhibition at 0.5 µM (recombinant human PIM1; cell-free assay): -2.36%
Structure (SMILES): O=C(O)c1ccc2c(c1)nc(N1CCN(c3cnccn3)CC1)c1ccncc12

IC50 (recombinant human PIM1; Table 45): > 1.1 µM
Structure (SMILES): Clc1cccc(Nc2nc3c(-c4nnco4)cccc3c3cnccc23)c1

IC50 (recombinant human PIM1; Table 45): > 1.1 µM
Structure (SMILES): O=C(O)c1cccc2c1nc(Nc1ccccc1)c1ccncc12 [drawing 2273]

IC50 (recombinant human PIM1; Table 45): > 1.1 µM
Structure (SMILES): O=C(O)c1cccc2c1nc(Nc1cccc(Cl)c1)c1ccncc12 [drawing 2271]

IC50 (recombinant human PIM1; Table 45): > 1.1 µM
Structure (SMILES): O=C(O)c1cccc2c1nc(Nc1cccc(Cl)c1)c1cnccc12

IC50 (recombinant human PIM1; Table 45): > 1.1 µM
Structure (SMILES): COC(=O)c1cccc2c1nc(Cl)c1ccncc12 [drawing 2270]

IC50 (recombinant human PIM1; Table 45): > 1.1 µM
Structure (SMILES): COC(=O)c1cccc2c1nc(Nc1cccc(Cl)c1)c1ccncc12

IC50 (recombinant human PIM1; Table 45): < 5 µM
Structure (SMILES): NNC(=O)c1cccc2c1nc(Nc1cccc(Cl)c1)c1ccncc12

IC50 (recombinant human PIM1): < 0.5 µM
Structure (SMILES): CN1CCN(c2ccc(Nc3nc4c(-c5nnc[nH]5)cccc4c4cnccc34)cc2)CC1
